How the values were obtained:
[1] = Spectroscopic properties of the BDM library (absorbance and emission maxima); type: physicochemical
[2] = Quantum yield measurements; type: physicochemical; conditions: referred to Rhodamine B in EtOH, excitation 510 nm, emission integrated 540-800 nm
Procedure: Quantum yields were calculated by measuring the integrated emission area of the fluorescent spectra, and referring them to the area measured for Rhodamine B in EtOH after excitation at 510 nm (ΦRho-B=0.70). Quantum yields for the BDM products were then calculated using equation below, where F represents the area of fluorescent emission, n is reflective index of the solvent, and Abs is absorbance at excitation wavelength selected for standards and samples. Emission was integrated from 540 nm to 800 nm.

| Structure (SMILES) | λmax (ABS) [1] | λmax (EM) [1] | φ (quantum yield) [2] |
| --- | --- | --- | --- |
| Cc1cc(/C=C/c2ccc(N(C)C)cc2)n2c1C(CCN)=C1C=CC=[N+]1[B-]2(F)F [BDM-2] | 607 nm | 685 nm | 0.01 |
| Cc1cc(/C=C/c2ccc(-c3ccccc3)cc2)n2c1C(CCN)=C1C=CC=[N+]1[B-]2(F)F [BDM-5] | 561 nm | 575 nm | 0.50 |
| Cc1cc(/C=C/c2ccc(-n3ccnc3)cc2)n2c1C(CCN)=C1C=CC=[N+]1[B-]2(F)F [BDM-8] | 561 nm | 575 nm | 0.34 |
| Cc1cc(/C=C/c2ccc(Cl)cc2)n2c1C(CCN)=C1C=CC=[N+]1[B-]2(F)F [BDM-12] | 556 nm | 567 nm | 0.32 |
| CCCCN(CCCC)c1ccc(/C=C/C2=[N+]3C(=C(CCN)c4cccn4[B-]3(F)F)C(C)=C2)cc1 [BDM-17] | 622 nm | 695 nm | 0.03 |
| CC1=CC(/C=C/c2cccc(Oc3ccccc3)c2)=[N+]2C1=C(CCN)c1cccn1[B-]2(F)F [BDM-20] | 554 nm | 564 nm | 0.47 |
| Cc1cc(/C=C/c2ccc(-c3cccs3)s2)n2c1C(CCN)=C1C=CC=[N+]1[B-]2(F)F [BDM-30] | 596 nm | 634 nm | 0.11 |
| Cc1cc(/C=C/c2ccc(C)c3ccccc23)n2c1C(CCN)=C1C=CC=[N+]1[B-]2(F)F [BDM-36] | 568 nm | 595 nm | 0.23 |
| CC1=CC(/C=C/c2csc3ccccc23)=[N+]2C1=C(CCN)c1cccn1[B-]2(F)F [BDM-37] | 566 nm | 588 nm | 0.15 |
| COc1ccc(/C=C/c2cc(C)c3n2[B-](F)(F)[N+]2=CC=CC2=C3CCN)c(Cl)c1O [BDM-38] | 565 nm | 579 nm | 0.06 |
| Cc1cc(/C=C/c2ccccc2-c2ccccc2)n2c1C(CCN)=C1C=CC=[N+]1[B-]2(F)F [BDM-40] | 554 nm | 567 nm | 0.53 |
| Cc1cc(/C=C/c2cc(C(C)(C)C)ccc2O)n2c1C(CCN)=C1C=CC=[N+]1[B-]2(F)F [BDM-43] | 564 nm | 579 nm | 0.21 |
| Cc1cc(/C=C/c2ccc(C=O)cc2)n2c1C(CCN)=C1C=CC=[N+]1[B-]2(F)F [BDM-49] | 562 nm | 572 nm | 0.24 |
| CCOc1ccc(/C=C/c2cc(C)c3n2[B-](F)(F)[N+]2=CC=CC2=C3CCN)cc1OCC [BDM-53] | 568 nm | 600 nm | 0.46 |
| COc1ccc(/C=C/C2=[N+]3C(=C(CCN)c4cccn4[B-]3(F)F)C(C)=C2)cc1OC [BDM-62] | 567 nm | 594 nm | 0.43 |
| COc1ccc2c(OC)ccc(/C=C/C3=[N+]4C(=C(CCN)c5cccn5[B-]4(F)F)C(C)=C3)c2c1 [BDM-70] | 582 nm | 642 nm | 0.13 |
| CC1=CC(/C=C/c2cc(Br)ccc2O)=[N+]2C1=C(CCN)c1cccn1[B-]2(F)F [BDM-73] | 561 nm | 575 nm | 0.28 |
| CC1=CC(/C=C/c2ccc(OC(C)(C)C)cc2)=[N+]2C1=C(CCN)c1cccn1[B-]2(F)F [BDM-75] | 560 nm | 585 nm | 0.53 |
| CCCc1ccc(/C=C/C2=[N+]3C(=C(CCN)c4cccn4[B-]3(F)F)C(C)=C2)cc1 [BDM-77] | 557 nm | 569 nm | 0.54 |
| CC1=CC(/C=C/c2ccc(N(C)C)cc2[N+](=O)[O-])=[N+]2C1=C(CCN)c1cccn1[B-]2(F)F [BDM-78] | 591 nm | – | 0.01 |
| COc1cc(OC)c(/C=C/C2=[N+]3C(=C(CCN)c4cccn4[B-]3(F)F)C(C)=C2)c(OC)c1 [BDM-82] | 579 nm | 621 nm | 0.40 |

The next lines start with the values.

| λmax (ABS) [1] | λmax (EM) [1] | φ (quantum yield) [2] | Structure (SMILES) |
| --- | --- | --- | --- |
| 561 nm | 586 nm | 0.21 | COc1cc(/C=C/c2cc(C)c3n2[B-](F)(F)[N+]2=CC=CC2=C3CCN)cc(OC)c1OC [BDM-1] |
| 600 nm | 683 nm | 0.05 | Cc1cc(/C=C/c2ccc(N(C)CCC#N)cc2)n2c1C(CCN)=C1C=CC=[N+]1[B-]2(F)F [BDM-3] |
| 566 nm | 590 nm | 0.42 | Cc1cc(/C=C/c2ccc(OCc3ccccc3)c(OCc3ccccc3)c2)n2c1C(CCN)=C1C=CC=[N+]1[B-]2(F)F [BDM-4] |
| 536 nm | 682 nm | 0.12 | Cc1cc(/C=C/c2c3ccccc3cc3ccccc23)n2c1C(CCN)=C1C=CC=[N+]1[B-]2(F)F [BDM-6] |
| 566 nm | 591 nm | 0.37 | COc1ccc(/C=C/c2cc(C)c3n2[B-](F)(F)[N+]2=CC=CC2=C3CCN)cc1OCc1ccccc1 [BDM-7] |
| 554 nm | 567 nm | 0.33 | Cc1cccc(/C=C/c2cc(C)c3n2[B-](F)(F)[N+]2=CC=CC2=C3CCN)c1 [BDM-9] |
| 593 nm | 624 nm | 0.02 | Cc1cc(/C=C/c2ccc(N(c3ccccc3)c3ccccc3)cc2)n2c1C(CCN)=C1C=CC=[N+]1[B-]2(F)F [BDM-14] |
| 561 nm | 574 nm | 0.14 | Cc1cc(/C=C/c2cc(C)c3n2[B-](F)(F)[N+]2=CC=CC2=C3CCN)cc(C)c1OCc1ccccc1 [BDM-16] |
| 567 nm | 588 nm | 0.33 | CSc1ccc(/C=C/c2cc(C)c3n2[B-](F)(F)[N+]2=CC=CC2=C3CCN)cc1 [BDM-18] |
| 555 nm | 569 nm | 0.71 | Cc1cc(/C=C/c2ccc(C(C)C)cc2)n2c1C(CCN)=C1C=CC=[N+]1[B-]2(F)F [BDM-19] |
| 567 nm | 584 nm | 0.14 | Cc1cc(/C=C/c2ccco2)n2c1C(CCN)=C1C=CC=[N+]1[B-]2(F)F [BDM-22] |
| 553 nm | 566 nm | 0.39 | CC1=CC(/C=C/c2ccccc2)=[N+]2C1=C(CCN)c1cccn1[B-]2(F)F [BDM-27] |
| 576 nm | 624 nm | 0.25 | COc1ccc(/C=C/c2cc(C)c3n2[B-](F)(F)[N+]2=CC=CC2=C3CCN)c2ccccc12 [BDM-32] |
| 564 nm | 580 nm | 0.14 | Cc1ccc(O)c(/C=C/c2cc(C)c3n2[B-](F)(F)[N+]2=CC=CC2=C3CCN)c1 [BDM-33] |
| 547 nm | 581 nm | 0.65 | Cc1ccc2cccc(/C=C/c3cc(C)c4n3[B-](F)(F)[N+]3=CC=CC3=C4CCN)c2c1 [BDM-34] |
| 554 nm | 563 nm | 0.25 | COc1ccc(Oc2cccc(/C=C/c3cc(C)c4n3[B-](F)(F)[N+]3=CC=CC3=C4CCN)c2)cc1 [BDM-42] |
| 564 nm | 583 nm | 0.74 | CCCCCCOc1ccc(/C=C/c2cc(C)c3n2[B-](F)(F)[N+]2=CC=CC2=C3CCN)cc1 [BDM-45] |
| 564 nm | 583 nm | 0.53 | CCCCOc1ccc(/C=C/c2cc(C)c3n2[B-](F)(F)[N+]2=CC=CC2=C3CCN)cc1 [BDM-46] |
| 563 nm | 583 nm | 0.83 | C=CCOc1ccc(/C=C/c2cc(C)c3n2[B-](F)(F)[N+]2=CC=CC2=C3CCN)cc1 [BDM-48] |
| 559 nm | 573 nm | 0.52 | COc1ccc(Br)cc1/C=C/c1cc(C)c2n1[B-](F)(F)[N+]1=CC=CC1=C2CCN [BDM-54] |
| 576 nm | 610 nm | 0.22 | COc1ccc2ccccc2c1/C=C/C1=[N+]2C(=C(CCN)c3cccn3[B-]2(F)F)C(C)=C1 [BDM-61] |
| 568 nm | 597 nm | 0.54 | CCOc1ccc(/C=C/C2=[N+]3C(=C(CCN)c4cccn4[B-]3(F)F)C(C)=C2)cc1OC [BDM-63] |
| 589 nm | 615 nm | 0.15 | CC1=CC(/C=C/c2ccc(-c3ccccc3)s2)=[N+]2C1=C(CCN)c1cccn1[B-]2(F)F [BDM-65] |
| 551 nm | 561 nm | 0.63 | CC1=CC(/C=C/c2ccc(OC(F)(F)F)cc2)=[N+]2C1=C(CCN)c1cccn1[B-]2(F)F [BDM-68] |
| 565 nm | 576 nm | 0.21 | CC1=CC(/C=C/c2ccc(-c3ccccn3)cc2)=[N+]2C1=C(CCN)c1cccn1[B-]2(F)F [BDM-88] |
| 576 nm | 612 nm | 0.30 | CC1=CC(/C=C/c2ccc3c4c(cccc24)CC3)=[N+]2C1=C(CCN)c1cccn1[B-]2(F)F [BDM-89] |
| 565 nm | 582 nm | 0.26 | CC1=CC(/C=C/c2ccc(OCc3ccccc3)cc2)=[N+]2C1=C(CCN)c1cccn1[B-]2(F)F [BDM-90] |
| 614 nm | 699 nm | 0.02 | CC1=CC(/C=C/c2ccc(N(C)CCO)cc2)=[N+]2C1=C(CCN)c1cccn1[B-]2(F)F [BDM-91] |
